# Measurements taken from ChEMBL document CHEMBL3885881, “DrugMatrix”.
# Organism: Rattus norvegicus
# Assay: DrugMatrix - Regimen: Daily Repeat
# Format: toxicity, organism-based, Sprague-Dawley
# Parameters: regimen Daily Repeat, gender Male, age 6-8 weeks
# Conditions: in vivo, sc, route subcutaneous, […]; for ABSOLUTE BASOPHIL / ABSOLUTE EOSINOPHIL / ABSOLUTE LYMPHOCYTE / ABSOLUTE MONOCYTE / ABSOLUTE SEGMENTED NEUTROPHIL / BASOPHIL / EOSINOPHIL / ERYTHROCYTE COUNT / HEMATOCRIT / HEMOGLOBIN / LEUKOCYTE COUNT / LYMPHOCYTE / MEAN CORPUSCULAR HEMOGLOBIN / MEAN CORPUSCULAR HEMOGLOBIN CONCENTRATION / MEAN CORPUSCULAR VOLUME / MONOCYTE / NEUTROPHIL / NUCLEATED RED BLOOD CELLS / PLATELET COUNT: tissue Blood; for ALANINE AMINOTRANSFERASE / ALKALINE PHOSPHATASE / ASPARTATE AMINOTRANSFERASE / BLOOD UREA NITROGEN / CARBON DIOXIDE / CHLORIDE / CHOLESTEROL / CREATINE PHOSPHOKINASE / CREATININE / GLUCOSE / LACTATE DEHYDROGENASE / LIPASE / PHOSPHORUS / POTASSIUM / SODIUM / TOTAL BILIRUBIN / TOTAL PROTEIN / URIC ACID: tissue Plasma
# [1] = 0 mg/kg, 72 h, dose level Control, time 3 day
# [2] = 0 mg/kg, 120 h, dose level Control, time 5 day
# [3] = 17 mg/kg, 72 h, dose level Low, time 3 day
smiles,measurement,setting,value
CC(C)Cn1cnc2c(N)nc3ccccc3c21 [IMIQUIMOD],ABSOLUTE BASOPHIL,[1],0 CELLS/uL
same,ABSOLUTE EOSINOPHIL,[1],42.67 CELLS/uL
same,ABSOLUTE LYMPHOCYTE,[1],10202 CELLS/uL
same,ABSOLUTE MONOCYTE,[1],261.5 CELLS/uL
same,ABSOLUTE SEGMENTED NEUTROPHIL,[1],2193.83 CELLS/uL
same,BASOPHIL,[1],0%
same,EOSINOPHIL,[1],0.33%
same,ERYTHROCYTE COUNT,[1],5.63 x10E6/uL
same,HEMATOCRIT,[1],35.35%
same,HEMOGLOBIN,[1],13.07 G/DL
same,LEUKOCYTE COUNT,[1],12.7 x10E3/uL
same,LYMPHOCYTE,[1],81.17%
same,MEAN CORPUSCULAR HEMOGLOBIN,[1],23.23 pg
same,MEAN CORPUSCULAR HEMOGLOBIN CONCENTRATION,[1],36.97 G/DL
same,MEAN CORPUSCULAR VOLUME,[1],62.82 fL
same,MONOCYTE,[1],2%
same,NEUTROPHIL,[1],16.5%
same,NUCLEATED RED BLOOD CELLS,[1],0 /100WBC
same,PLATELET COUNT,[1],1180.33 x10E3/uL
same,ALANINE AMINOTRANSFERASE,[1],48.67 u/L
same,ALKALINE PHOSPHATASE,[1],360.67 u/L
same,ASPARTATE AMINOTRANSFERASE,[1],85.5 u/L
same,BLOOD UREA NITROGEN,[1],17.83 mg/dL
same,CARBON DIOXIDE,[1],26.17 mmol/L
same,CHLORIDE,[1],101.83 MEQ/L
same,CHOLESTEROL,[1],71 mg/dL
same,CREATINE PHOSPHOKINASE,[1],515.17 u/L
same,CREATININE,[1],0.22 mg/dL
same,GLUCOSE,[1],192.5 mg/dL
same,LACTATE DEHYDROGENASE,[1],214.67 u/L
same,LIPASE,[1],8.5 u/L
same,PHOSPHORUS,[1],12.95 mg/dL
same,POTASSIUM,[1],6.39 MEQ/L
same,SODIUM,[1],142.38 MEQ/L
same,TOTAL BILIRUBIN,[1],0.18 mg/dL
same,TOTAL PROTEIN,[1],5.95 G/DL
same,URIC ACID,[1],1.83 mg/dL
same,ABSOLUTE BASOPHIL,[2],0 CELLS/uL
same,ABSOLUTE EOSINOPHIL,[2],188.5 CELLS/uL
same,ABSOLUTE LYMPHOCYTE,[2],12360.83 CELLS/uL
same,ABSOLUTE MONOCYTE,[2],64.33 CELLS/uL
same,ABSOLUTE SEGMENTED NEUTROPHIL,[2],1986.33 CELLS/uL
same,BASOPHIL,[2],0%
same,EOSINOPHIL,[2],1.33%
same,ERYTHROCYTE COUNT,[2],5.52 x10E6/uL
same,HEMATOCRIT,[2],35.82%
same,HEMOGLOBIN,[2],13.25 G/DL
same,LEUKOCYTE COUNT,[2],14.6 x10E3/uL
same,LYMPHOCYTE,[2],84.5%
same,MEAN CORPUSCULAR HEMOGLOBIN,[2],24.05 pg
same,MEAN CORPUSCULAR HEMOGLOBIN CONCENTRATION,[2],36.98 G/DL
same,MEAN CORPUSCULAR VOLUME,[2],64.97 fL
same,MONOCYTE,[2],0.5%
same,NEUTROPHIL,[2],13.67%
same,NUCLEATED RED BLOOD CELLS,[2],0 /100WBC
same,PLATELET COUNT,[2],1297.83 x10E3/uL
same,ALANINE AMINOTRANSFERASE,[2],51.17 u/L
same,ALKALINE PHOSPHATASE,[2],393.17 u/L
same,ASPARTATE AMINOTRANSFERASE,[2],111 u/L
same,BLOOD UREA NITROGEN,[2],18.17 mg/dL
same,CARBON DIOXIDE,[2],25 mmol/L
same,CHLORIDE,[2],105.17 MEQ/L
same,CHOLESTEROL,[2],65.5 mg/dL
same,CREATINE PHOSPHOKINASE,[2],911.5 u/L
same,CREATININE,[2],0.21 mg/dL
same,GLUCOSE,[2],183 mg/dL
same,LACTATE DEHYDROGENASE,[2],189 u/L
same,LIPASE,[2],8.33 u/L
same,PHOSPHORUS,[2],12.78 mg/dL
same,POTASSIUM,[2],6.05 MEQ/L
same,SODIUM,[2],144.57 MEQ/L
same,TOTAL BILIRUBIN,[2],0.25 mg/dL
same,TOTAL PROTEIN,[2],5.83 G/DL
same,URIC ACID,[2],1.58 mg/dL
same,ABSOLUTE BASOPHIL,[3],0 CELLS/uL
same,ABSOLUTE EOSINOPHIL,[3],0 CELLS/uL
same,ABSOLUTE LYMPHOCYTE,[3],10952 CELLS/uL
same,ABSOLUTE MONOCYTE,[3],127.67 CELLS/uL
same,ABSOLUTE SEGMENTED NEUTROPHIL,[3],1687 CELLS/uL
same,BASOPHIL,[3],0%
same,EOSINOPHIL,[3],0%
same,ERYTHROCYTE COUNT,[3],5.23 x10E6/uL
same,HEMATOCRIT,[3],32.37%
same,HEMOGLOBIN,[3],11.97 G/DL
same,LEUKOCYTE COUNT,[3],12.77 x10E3/uL
same,LYMPHOCYTE,[3],86.33%
same,MEAN CORPUSCULAR HEMOGLOBIN,[3],22.9 pg
same,MEAN CORPUSCULAR HEMOGLOBIN CONCENTRATION,[3],37 G/DL
same,MEAN CORPUSCULAR VOLUME,[3],61.93 fL
same,MONOCYTE,[3],1%
same,NEUTROPHIL,[3],12.67%
same,NUCLEATED RED BLOOD CELLS,[3],0 /100WBC
same,PLATELET COUNT,[3],1138.33 x10E3/uL
same,ALANINE AMINOTRANSFERASE,[3],57.67 u/L
same,ALKALINE PHOSPHATASE,[3],333.67 u/L
same,ASPARTATE AMINOTRANSFERASE,[3],91.67 u/L
same,BLOOD UREA NITROGEN,[3],17.33 mg/dL
same,CARBON DIOXIDE,[3],27 mmol/L
same,CHLORIDE,[3],104.67 MEQ/L
same,CHOLESTEROL,[3],71 mg/dL
same,CREATINE PHOSPHOKINASE,[3],483 u/L
same,CREATININE,[3],0.24 mg/dL
same,GLUCOSE,[3],177 mg/dL
same,LACTATE DEHYDROGENASE,[3],117.33 u/L
same,LIPASE,[3],7.67 u/L
same,PHOSPHORUS,[3],13 mg/dL
same,POTASSIUM,[3],6.18 MEQ/L
same,SODIUM,[3],146.27 MEQ/L
same,TOTAL BILIRUBIN,[3],0.17 mg/dL
same,TOTAL PROTEIN,[3],5.53 G/DL
same,URIC ACID,[3],1.6 mg/dL
